In article PMC7126098 (Bioorganic & Medicinal Chemistry, 2019):
Values belong to the compound of their own block, whether it stands above or below them.

Experiments:
[1] = tested on: herpes simplex virus-1 (KOS strain); assay: Inhibition of virus-induced cytopathicity, HSV-1; assay type: cell-based; details: anti-HSV screening in HEL cells
[2] = tested on: herpes simplex virus-2 (G strain); assay: Inhibition of virus-induced cytopathicity, HSV-2; assay type: cell-based; details: Human alphaherpesvirus 2, HEL, read-out: EC50 HSV-2
[3] = tested on: eight human cancer cell lines; assay: Cytostatic activity against panel of human cell lines; assay type: cell-based; details: for IC50: Homo sapiens, read-out: cytostatic activity (IC50 range over cell lines)
[4] = Stability towards light and air; assay type: physicochemical
[5] = tested on: HSV-1 TK; details: relative to ACV; cited from earlier work
[6] = tested on: pancreatic adenocarcinoma Capan-1 cell line; assay: Cytostatic activity against Capan-1; assay type: cell-based, human
[7] = tested on: human cytomegalovirus (HCMV) (AD-169 strain and Davis strain); assay: Inhibition of virus-induced cytopathogenicity, HCMV in HEL cells; assay type: cell-based
[8] = tested on: cell culture; details: at concentrations up to 100 µg/mL; cited from earlier work

Compound: O=c1c2ncn(CCC(CO)CO)c2nc2[nH]c(-c3ccccc3)cn12 [9a, 3-(4-Hydroxy-3-(hydroxymethyl)butyl)-6-phenyl-3,5-dihydro-9H-imidazo[1,2-a]purin-9-one]
antiviral activity (in words) [1]: inactive

EC50 [2]: 28 to 40.9 µM
Compound: O=c1c2ncn(CCC(CO)CO)c2nc2[nH]c(-c3ccc(F)cc3)cn12 [9b, 6-(4-Fluorophenyl)-3-(4-hydroxy-3-(hydroxymethyl)butyl)-3,5-dihydro-9H-imidazo[1,2-a]purin-9-one]

Compound: O=c1c2ncn(CCC(CO)CO)c2nc2[nH]c(-c3ccc(Cl)cc3)cn12 [9c, 6-(4-Chlorophenyl)-3-(4-hydroxy-3-(hydroxymethyl)butyl)-3,5-dihydro-9H-imidazo[1,2-a]purin-9-one]
antiviral activity (in words) [1]: inactive

Compound: Cc1ccc(-c2cn3c(=O)c4ncn(CCC(CO)CO)c4nc3[nH]2)cc1 [9d, 3-(4-Hydroxy-3-(hydroxymethyl)butyl)-6-(p-tolyl)-3,5-dihydro-9H-imidazo[1,2-a]purin-9-one]
antiviral activity (in words) [1]: inactive

IC50 [3]: 12.5 to 76.1 µM | EC50 [2]: 28 to 40.9 µM
Compound: O=c1c2ncn(CCC(CO)CO)c2nc2[nH]c(-c3ccc(C(F)(F)F)cc3)cn12 [9e, 3-(4-Hydroxy-3-(hydroxymethyl)butyl)-6-(4-(trifluoromethyl)phenyl)-3,5-dihydro-9H-imidazo[1,2-a]purin-9-one]

EC50 [2]: 28 to 40.9 µM
Compound: O=c1c2ncn(CCC(CO)CO)c2nc2[nH]c(-c3ccc4c(c3)OCO4)cn12 [9i, 6-(Benzo[d][1,3]dioxol-5-yl)-3-(4-hydroxy-3-(hydroxymethyl)butyl)-3,5-dihydro-9H-imidazo[1,2-a]purin-9-one]

IC50 [3]: 16.9 to 90.4 µM
Compound: O=c1c2ncn(CCC(CO)CO)c2nc2[nH]c(-c3ccc(Oc4ccccc4)cc3)cn12 [9j, 3-(4-Hydroxy-3-(hydroxymethyl)butyl)-6-(4-phenoxyphenyl)-3,5-dihydro-9H-imidazo[1,2-a]purin-9-one]
antiviral activity (in words) [1]: inactive

Compound: O=c1c2ncn(CCCCO)c2nc2[nH]c(-c3ccc(C(F)(F)F)cc3)cn12 [10e, 3-(4-Hydroxybutyl)-6-(4-(trifluoromethyl)phenyl)-3,5-dihydro-9H-imidazo[1,2-a]purin-9-one]
cytostatic activity (in words) ([3]; range of cancer cell lines): most effective

stability towards light and air [4]: stable enough to be collected safely
Compound: O=c1c2ncn(CCCCO)c2nc2[nH]c(-c3cccs3)cn12 [10h, 3-(4-Hydroxybutyl)-6-(thiophen-2-yl)-3,5-dihydro-9H-imidazo[1,2-a]purin-9-one]

Compound: Nc1nc2c(ncn2CCCCO)c(=O)[nH]1 [HBG, hydroxybutylguanine]
affinity for HSV-1 TK (in words) [5]: higher affinity for HSV-1 TK than ACV | inhibition of proliferation of Capan-1 (in words) [6]: slightly inhibited | activity against HCMV (in words) [7]: inactive

Compound: Nc1nc2c(ncn2CCC(CO)CO)c(=O)[nH]1 [PCV, penciclovir]
inhibition of proliferation of Capan-1 (in words) [6]: slightly inhibited | toxicity in cell culture [8]: did not exhibit any toxicity | activity against HCMV (in words) [7]: not inhibitory
